Values of other authors as cited in patent US12091679B2, “Storage method and banking system of NT cell” (SUNGKWANG MEDICAL FOUNDATION, priority 2015, dated 2024).

Test system: various animal cancer models

SMILES | anticancer activity
CC(C)N(C[C@H]1O[C@@H](n2cnc3c(N)ncnc32)[C@H](O)[C@@H]1O)[C@H]1C[C@@H](CCc2nc3cc(C(C)(C)C)ccc3[nH]2)C1 [EPZ5676] | show anticancer activity
CC[C@H](C)n1cc(C)c2c(C(=O)NCc3c(C)cc(C)[nH]c3=O)cc(-c3ccc(N4CCNCC4)nc3)cc21 [GSK126] | show anticancer activity
Cc1cc(C)c(CNC(=O)c2cc(-c3ccc(CN4CCOCC4)cc3)cc3c2cnn3C2CCCC2)c(=O)[nH]1 [EPZ005687] | show anticancer activity
